Test results published in patent publication US20220324912A1, “THERAPEUTIC PEPTIDES” (COHBAR, INC., priority 2019, published 2022).
Non-standard residues stand in square brackets, D forms with d. Residues, ends and D or L forms follow the SMILES beside them. No end group written: not given here.

What was measured:
3T3-L1 adipocytes = assay: Free Fatty Acid Levels in 3T3-L1 Adipocytes (Example 4, 25 μM); format: cell-based, mouse; conditions: for Free fatty acid levels, Percent of Control Value (percent isoproterenol control): peptides 25 μM, 20-22 hours then 3 hours with isoproterenol 1 nM, 3T3-L1 adipocytes
Protocol: Following 12-15 days' differentiation, test peptides were added to a final concentration of 25 μM and incubated for 20-22 hours in Adipocyte Maintenance Medium. After 20-22 hours, isoproterenol (1 nM) was added to all wells except untreated controls and test peptides were replenished. Cells were incubated for a further 3 hours in Assay Buffer (Zen-Bio). Free fatty acid concentrations in the media were determined using a Free Fatty Acid Assay Kit (Zen-Bio) according to the manufacturer's instructions using a plate reader (540 nm). Absorbance values were corrected for untreated background and expressed relative to isoproterenol treated cells. Treatment with isoproterenol (1 nM) alone was used as the free fatty acid level stimulatory control. The relative standard deviation of the isoproterenol control was <10%. […] Free fatty acid levels for insulin (100 nM) treatment were <5% of the isoproterenol control value.

[1] = Stability in Mouse Plasma; format: in vitro ADME; conditions: pooled mouse plasma, 37° C., peptides 100 DM; for remaining at 0.25 h, 100 DM: 15 min; for remaining at 0.5 h, 100 DM: 30 min; for remaining at 1 h, 100 DM: 60 min; for remaining at 2 h, 100 DM: 120 min; for remaining at 3 h, 100 DM: 180 min
Protocol: Peptides (100 DM) were incubated in pooled mouse plasma at 37° C. and samples were removed and immediately analyzed for the concentration of intact peptide by LC/MS/MS over the course of 3 hours. The percent of peptide remaining in plasma at each time point was calculated relative to the initial peak area (Table 9).

C2C12 cells [2] = assay: Cell Proliferation in C2C12 Cells (Cyquant DNA dye); format: cell-based, mouse; conditions: lovastatin 10 μM, 72 hours
Protocol: The effect of the peptides on cell proliferation was assessed using a DNA dye binding assay in cultured cells such as mouse myoblast cells. Peptides were initially prepared as 10 mM stock in DMSO, diluted to 1 mM in H2O, and added at a final concentration of 10 μM (0.1% DMSO). Lovastatin was used as a growth arrest control at final concentration of […]. […] C2C12 cells were grown in DMEM supplemented with 20% FBS with 100 IU/ml penicillin and 100 μg/ml streptomycin. […] C2C12 cells were seeded at 800 cells per well on 96-well plates. […] Cell proliferation was determined using Cyquant Direct Nucleic Acid Stain (Thermo Fisher Scientific, Waltham, Mass.) according to the manufacturer's instructions. Fluorescence for each sample well on the plate was measured using a Cytation 3 plate reader at Ex/Em=495/535 nm (BioTek, Winooski, Vt.). Activity was calculated relative to 0.1% DMSO untreated control. The relative standard deviation for the lovastatin control was <27%. The cell proliferation for the lovastatin control was <25% of the value for untreated control.

C2C12 cells [3] = assay: Cellular ROS Levels Induced by TBHP in C2C12 Cells (DCFDA); format: cell-based, mouse; conditions: sulforaphane 10 µM
Protocol: The protective or synergistic effect of the peptides on cellular levels of reactive oxygen species (ROS) induced by oxidative stress can be assessed using an assay of ROS in cultured cells such as mouse myoblasts exposed to a suitable oxidative stress. Peptides were initially prepared as 10 mM stock in DMSO, diluted to 1 mM in H2O, and added at a final concentration of 10 μM (0.1% DMSO). […] TBHP was used at final concentration of 100 μM. Sulforaphane at final concentration of 10 µM was used as a protective control against TBHP induced ROS production. […] C2C12 cells were grown in DMEM supplemented with 20% FBS with 100 IU/ml penicillin and 100 μg/ml streptomycin. […] C2C12 cells were seeded at 7,500 cells per well on 96-well plates. […] After 18-20 hours of incubation the cells were loaded with DCFDA for 45 min. TBHP at 100 μM was then added to the appropriate wells for 1 hour. ROS activity was determined using a DCFDA Cellular ROS Detection Assay kit (Abcam, Cambridge, Mass.) according to the manufacturer's instructions. Fluorescence in each sample well on the plate was measured using a Cytation 3 plate reader at Ex/Em=485/535 nm (BioTek, Winooski, Vt.). Activity was calculated relative to TBHP control. The relative standard deviation of the sulforaphane control was <20%. The ROS level produced by the sulforaphane control in the presence of TBHP was 52% of the TBHP control.

DIO mice = assay: Effects in Diet Induced Obese (DIO) mice, once daily subcutaneous, 10 days (Example 9); format: in vivo, mouse; conditions: for Difference from Vehicle Control: Decrease from Baseline in Blood Glucose / Difference from Vehicle Control: Decrease from Baseline in Body Weight / Difference from Vehicle Control: Decrease from Baseline in Fat Mass: male DIO mice
Protocol: C57BL/6 mice were maintained on a high fat diet for 18 weeks to develop diet induced obesity. Animals were randomized to treatment groups based on blood glucose levels and body weight. The peptide of SEQ ID NO: 9 was administered to two groups of male DIO mice once daily by subcutaneous injection at doses of 5.0 or 15 mg/kg/dose for 10 days (N=8 animals per treatment group). An additional group of male DIO mice (n=8) received vehicle (water) alone. Body weight, blood glucose levels and food intake were monitored. Body mass distribution (fat vs lean) was determined by quantitative whole body NMR prior to dosing and at the end of dosing.

3T3-L1 mouse adipocytes = assay: Free Fatty Acid Levels in 3T3-L1 Mouse Adipocytes (Example 12, 10 μM); format: cell-based; conditions: insulin 100 nM, Example 12
Protocol: The effect of the peptides on fatty acid metabolism can be assessed using an assay of free fatty acid levels in cultured cells such as mouse adipocytes. Peptides were initially prepared as 10 mM stock in DMSO, diluted to 1 mM in H2O, and used at a final concentration of 10 μM (0.1% DMSO). […] After 20-22 hours, 1 nM isoproterenol was added to all wells except untreated controls and test peptides were replenished. Insulin at 100 nM was added to control wells. […] Free fatty acid concentrations in the media were determined using a Free Fatty Acid Assay kit (Zen-Bio) according to the manufacturer's instructions using a Cytation 3 plate reader at 540 nm (BioTek, Winooski, Vt.). Absorbance values were corrected for untreated background and expressed relative to isoproterenol treated cells. Treatment with isoproterenol (1 nM) alone was used as the free fatty acid level stimulatory control. The relative standard deviation of the isoproterenol control was <10%. […] Free fatty acid levels for insulin (100 nM) treatment were <5% of the isoproterenol control value.

Row | % Remaining at 0 min [1] | remaining at 0.25 h, 100 DM [1] | remaining at 0.5 h, 100 DM [1] | remaining at 1 h, 100 DM [1] | remaining at 2 h, 100 DM [1] | remaining at 3 h, 100 DM [1] | Compound | Free fatty acid levels, Percent of Control Value (percent isoproterenol control) (3T3-L1 adipocytes) | also measured
1 |  |  |  |  |  |  | 31 (WAIDEKAVEASGE) [compound 31] | 115% | 
2 |  |  |  |  |  |  | 32 (W[dA]IDEKAVEASGE) [compound 32] | 102% | 
3 |  |  |  |  |  |  | 33 (W[dA]IDEKAVE[dA]SGE) [compound 33] | 92% | 
4 | 100% | 84.9% | 82.7% | 70.9% | 58.7% | 45% | CC[C@H](C)[C@H](NC(=O)[C@H](C)NC(=O)[C@H](CO)NC(=O)CNC(=O)[C@@H]1CCCN1C(=O)[C@H](CC(C)C)NC(=O)[C@@H](N)CCCNC(=N)N)C(=O)N[C@@H](CC(C)C)C(=O)N[C@H](C(=O)N[C@@H](CC(N)=O)C(=O)N1CCC[C@H]1C(=O)N[C@H](C(=O)N[C@@H](CC(C)C)C(=O)NCC(=O)N[C@@H](Cc1c[nH]c2ccccc12)C(=O)N[C@H](C(=O)N[C@@H](Cc1c[nH]c2ccccc12)C(=O)N[C@H](C(=O)O)C(C)C)C(C)C)C(C)C)[C@@H](C)O [compound 8] (H-RLPGSAILTNPVLGWVWV-OH) |  | 
5 | 100% | 90.5% | 81% | 72% | 56.5% | 46.6% | CC[C@H](C)[C@H](NC(=O)[C@@H](C)NC(=O)[C@H](CO)NC(=O)CNC(=O)[C@@H]1CCCN1C(=O)[C@H](CC(C)C)NC(=O)[C@@H](N)CCCNC(=N)N)C(=O)N[C@@H](CC(C)C)C(=O)N[C@H](C(=O)N[C@@H](CC(N)=O)C(=O)N1CCC[C@H]1C(=O)N[C@H](C(=O)N[C@@H](CC(C)C)C(=O)NCC(=O)N[C@@H](Cc1c[nH]c2ccccc12)C(=O)N[C@H](C(=O)N[C@@H](Cc1c[nH]c2ccccc12)C(=O)N[C@H](C(=O)O)C(C)C)C(C)C)C(C)C)[C@@H](C)O [compound 9] (H-RLPGS[dA]ILTNPVLGWVWV-OH) |  | 
6 | 100% | 76.5% | 58.1% | 44.4% | 18.1% | 8.9% | CC[C@H](C)[C@H](NC(=O)[C@@H](C)NC(=O)[C@H](CO)NC(=O)CNC(=O)[C@@H]1CCCN1C(=O)[C@H](CC(C)C)NC(=O)[C@@H](N)CCCNC(=N)N)C(=O)N[C@@H](CC(C)C)C(=O)N[C@H](C(=O)N[C@@H](CC(N)=O)C(=O)N1CCC[C@H]1C(=O)N[C@H](C(=O)N[C@@H](CC(C)C)C(=O)NCC(=O)N[C@@H](Cc1c[nH]c2ccccc12)C(=O)N[C@H](C(=O)O)C(C)C)C(C)C)[C@@H](C)O [compound 10] (H-RLPGS[dA]ILTNPVLGWV-OH) |  | 
7 |  |  |  |  |  |  | CC[C@H](C)C(=O)O[C@H]1C[C@@H](C)C=C2C=C[C@H](C)[C@H](CC[C@@H]3C[C@@H](O)CC(=O)O3)[C@H]21 [lovastatin, reference compound] |  | Cell proliferation, % of the value for untreated control (C2C12 cells [2]): < 25%
8 |  |  |  |  |  |  | C[S+]([O-])CCCCN=C=S (stereo not shown) [sulforaphane, reference compound] |  | ROS level in the presence of TBHP, % of the TBHP control (C2C12 cells [3]): 52%
9 |  |  |  |  |  |  | RLPGS(dA)ILTNPVLGWVWV (RLPGS[dA]ILTNPVLGWVWV) [SEQ ID NO: 9] |  | Difference from Vehicle Control: Decrease from Baseline in Blood Glucose (DIO mice; 5.0 mg/kg/dose): 7.0 mg/dL; Difference from Vehicle Control: Decrease from Baseline in Body Weight (DIO mice; 5.0 mg/kg/dose): 1.79%; Difference from Vehicle Control: Decrease from Baseline in Fat Mass (DIO mice; 5.0 mg/kg/dose): 0.56 g; Difference from Vehicle Control: Decrease from Baseline in Blood Glucose (DIO mice; 15.0 mg/kg/dose): 18.0 mg/dL; Difference from Vehicle Control: Decrease from Baseline in Body Weight (DIO mice; 15.0 mg/kg/dose): 1.96%; Difference from Vehicle Control: Decrease from Baseline in Fat Mass (DIO mice; 15.0 mg/kg/dose): 0.86 g; Body weight loss compared to vehicle (in words) (DIO mice; 5.0 or 15 mg/kg/dose): greater body weight loss; Decrease in fat mass from baseline compared to vehicle (in words) (DIO mice; 5.0 or 15 mg/kg/dose): greater decrease in fat mass; Reduction in blood glucose compared to vehicle (in words) (DIO mice; 5.0 or 15 mg/kg/dose): greater reduction in blood glucose
10 |  |  |  |  |  |  | insulin [reference compound] |  | Free fatty acid levels, % of isoproterenol control value (3T3-L1 adipocytes; insulin 100 nM, Example 4): < 5%; Free fatty acid levels, % of isoproterenol control value (3T3-L1 mouse adipocytes): < 5%
